The source of these data is article PMC3427316 (PLoS ONE, 2012).

Assay [1] has as its target NA of D0 isolate A/Paris/7976/2010 (223I 100%, 275H 100%) (Influenza A virus, UniProt V9TJZ0). It counts as biochemical, influenza A(H1N1)pdm09 virus. The note with it: read-out: Ki +/− SD.
Another assay has as its system H1N1pdm09 virus. Particulars: human, in vivo.

In the case of `CCC(CC)O[C@@H]1C=C(C(=O)O)C[C@H](N)[C@H]1NC(C)=O` [OC, oseltamivir carboxylate], the Ki in assay [1] is 0.28 nM.

Regarding `CC(=O)N[C@H]1[C@H]([C@H](O)[C@H](O)CO)OC(C(=O)O)=C[C@@H]1N=C(N)N` [ZAN, zanamivir], in the assay on H1N1pdm09 virus, the “impact on viral shedding” value is “no impact” and the symptoms result is “did not improve”.
